{"source": "patent US20240058328A1", "about": "“MASITINIB FOR THE TREATMENT OF ALZHEIMER'S DISEASE” (AB SCIENCE, priority 2020, published 2024)", "system": "patients with Alzheimer's disease", "assay": "Phase 3 study AB09004: change from baseline in ADAS-Cog score", "format": "in vivo, human", "parameters": "key to δLSM (ADAS-Cog) / 8LSM (ADAS-Cog): LSM diff. of ADAS-Cog change from baseline; negative = improvement", "conditions": "for ALSM (ADAS-Cog) / 8LSM (ADAS-Cog) / ΔLSM (ADAS-Cog) / δLSM (ADAS-Cog): 4.5 mg/kg/day; for ALSM (ADAS-Cog) / ΔLSM (ADAS-Cog): vs placebo, week 24; for 8LSM (ADAS-Cog) / δLSM (ADAS-Cog): week 24 from baseline", "experimental": "An international, multicenter, randomized, double-blind, placebo-controlled phase 3 study was conducted with the objective to evaluate oral masitinib at a dose of 4.5 mg/kg/day as a treatment for Alzheimer's disease.\nEligible patients, aged at least 50 years, were diagnosed with dementia of Alzheimer's type according to Diagnostic and Statistical Manual of Mental Disorders (DSM)-IV criteria, and probable Alzheimer's disease according to NINCDS-ADRDA (National Institute of Neurological and Communicative Diseases and Stroke/Alzheimer's Disease and Related Disorders Association) criteria. […] Patients with any other cause of dementia not due to Alzheimer's disease were ineligible for the study.\nEligible patients were treated during 24 weeks with masitinib at a dose of 4.5 mg/kg/day (mg per kilo body weight per day) or with placebo. Treatment was administered as add-on therapy in patients who had been treated for a minimum of 6 months with a stable dose of cholinesterase inhibitors (donepezil, rivastigmine or galantamine) and/or memantine, with no changes foreseen in therapy throughout the study.\nPrimary analysis was based on the co-primary endpoints of: • Change from baseline in Alzheimer's Disease Cooperative Study Activities of Daily Living (ADCS-ADL) score. The ADCS-ADL assesses the competence of patients with Alzheimer's disease in basic and instrumental activities of daily living (ADLs). • Change from baseline in Alzheimer's Disease Assessment Scale-Cognitive Subscale (ADAS-Cog). The ADAS-Cog assesses cognition and memory.\nTreatment effect (masitinib versus placebo) was assessed based on absolute change from baseline to week 24 by using an analysis of covariance model (ANCOVA linear model) with the following factors: treatment, baseline value, and stratification criteria of baseline MMSE score, age, ADCS-ADL total score, and ADAS-Cog total score.\nThe ADAS-Cog version used in study AB09004 included 11 items regrouped as follows: language (items 1, 2, 3), praxia and gnosia (items 5, 7, 8, 9), memory (items 4, 10, 11), orientation (item 6). The items range either from 0 to 5 (items 1, 2, 3, 5, 7, 8, 9, 11), or from 0 to 8 (item 6), or from 0 to 10 (item 4), or from 0 to 12 (item 10). The global score, which is the sum of the 11 items, ranges from 0 to 70, with higher scores indicating greater cognitive impairment. Results are expressed as a least-squares means difference (δLSM) of absolute change in ADAS-Cog score from baseline; that is to say, the change over time in the ADAS-Cog score, or in other words the difference between the ADAS-Cog score at baseline and the ADAS-Cog score after treatment with masitinib or with placebo. A decrease in ADAS-Cog score with respect to baseline (i.e., a negative δLSM) indicates an improvement in the patient and therefore disease stability, whereas an increase in ADAS-Cog score with respect to baseline (i.e., a positive δLSM) indicates a worsening in the patient and therefore disease progression. Treatment-effect is reported as the difference between treatment-arms (ΔLSM) (calculated as δLSM[masitinib] minus δLSM[placebo]), with a negative value indicating a beneficial effect of treatment with masitinib as compared with placebo. In a scenario where both treatment-arms show worsening in cognitive function (i.e., a positive δLSM), then a negative ΔLSM indicates a beneficial treatment effect for masitinib, i.e., the rate of decline in masitinib treated patients is slower than that of patients from the placebo-arm. […]"}
{"smiles": "Cc1ccc(NC(=O)c2ccc(CN3CCN(C)CC3)cc2)cc1Nc1nc(-c2cccnc2)cs1", "note": "[masitinib, 4-(4-methylpiperazin-1-ylmethyl)-N-[4-methyl-3-(4-pyridin-3ylthiazol-2-ylamino)phenyl]benzamide]", "values": [{"measurement": "ALSM (ADAS-Cog)", "setting": "Baseline ADAS-Cog >32", "value": "−1.6044", "unit": "points"}, {"measurement": "8LSM (ADAS-Cog)", "setting": "Baseline ADAS-Cog >32", "value": "−7.2739"}, {"measurement": "ALSM (ADAS-Cog)", "setting": "Baseline ADAS-Cog >40", "value": "−0.2351", "unit": "points"}, {"measurement": "8LSM (ADAS-Cog)", "setting": "Baseline ADAS-Cog >40", "value": "−4.9348"}, {"measurement": "ALSM (ADAS-Cog)", "setting": "Baseline ADAS-Cog ≤32", "value": "−2.1011", "unit": "points"}, {"measurement": "8LSM (ADAS-Cog)", "setting": "Baseline ADAS-Cog ≤32", "value": "−1.5266"}, {"measurement": "ALSM (ADAS-Cog)", "setting": "Baseline ADAS-Cog ≤40", "value": "−2.3299", "unit": "points"}, {"measurement": "8LSM (ADAS-Cog)", "setting": "Baseline ADAS-Cog ≤40", "value": "−1.4472"}, {"measurement": "ΔLSM (ADAS-Cog)", "setting": "Diagnosis >2 years", "value": "−1.3581", "unit": "points"}, {"measurement": "δLSM (ADAS-Cog)", "setting": "Diagnosis >2 years", "value": "−1.2197"}, {"measurement": "ΔLSM (ADAS-Cog)", "setting": "Diagnosis >3 years", "value": "−0.3770", "unit": "points"}, {"measurement": "δLSM (ADAS-Cog)", "setting": "Diagnosis >3 years", "value": "−0.7048"}, {"measurement": "ΔLSM (ADAS-Cog)", "setting": "Diagnosis >4 years", "value": "−1.3426", "unit": "points"}, {"measurement": "δLSM (ADAS-Cog)", "setting": "Diagnosis >4 years", "value": "−1.2607"}, {"measurement": "ΔLSM (ADAS-Cog)", "setting": "Diagnosis >5 years", "value": "−1.4470", "unit": "points"}, {"measurement": "δLSM (ADAS-Cog)", "setting": "Diagnosis >5 years", "value": "−1.4756"}, {"measurement": "ΔLSM (ADAS-Cog)", "setting": "Diagnosis ≤2 years", "value": "−2.7754", "unit": "points"}, {"measurement": "δLSM (ADAS-Cog)", "setting": "Diagnosis ≤2 years", "value": "−1.6958"}, {"measurement": "ΔLSM (ADAS-Cog)", "setting": "Diagnosis ≤3 years", "value": "−2.8700", "unit": "points"}, {"measurement": "δLSM (ADAS-Cog)", "setting": "Diagnosis ≤3 years", "value": "−1.7671"}, {"measurement": "ΔLSM (ADAS-Cog)", "setting": "Diagnosis ≤4 years", "value": "−2.3435", "unit": "points"}, {"measurement": "δLSM (ADAS-Cog)", "setting": "Diagnosis ≤4 years", "value": "−1.4948"}, {"measurement": "ΔLSM (ADAS-Cog)", "setting": "Diagnosis ≤5 years", "value": "−2.2599", "unit": "points"}, {"measurement": "δLSM (ADAS-Cog)", "setting": "Diagnosis ≤5 years", "value": "−1.4394"}, {"measurement": "ΔLSM (ADAS-Cog)", "setting": "MMSE <13", "value": "−0.4996", "unit": "points"}, {"measurement": "δLSM (ADAS-Cog)", "setting": "MMSE <13", "value": 2.1702}, {"measurement": "ΔLSM (ADAS-Cog)", "setting": "MMSE <14", "value": 1.0497, "unit": "points"}, {"measurement": "δLSM (ADAS-Cog)", "setting": "MMSE <14", "value": 3.6165}, {"measurement": "ΔLSM (ADAS-Cog)", "setting": "MMSE <15", "value": "−1.0976", "unit": "points"}, {"measurement": "δLSM (ADAS-Cog)", "setting": "MMSE <15", "value": 1.5482}, {"measurement": "ΔLSM (ADAS-Cog)", "setting": "MMSE <16", "value": "−1.0624", "unit": "points"}, {"measurement": "δLSM (ADAS-Cog)", "setting": "MMSE <16", "value": 0.8538}, {"measurement": "ΔLSM (ADAS-Cog)", "setting": "MMSE <17", "value": "−1.0127", "unit": "points"}, {"measurement": "δLSM (ADAS-Cog)", "setting": "MMSE <17", "value": 0.9251}, {"measurement": "ΔLSM (ADAS-Cog)", "setting": "MMSE [12-20]", "value": "−1.7387", "unit": "points"}, {"measurement": "δLSM (ADAS-Cog)", "setting": "MMSE [12-20]", "value": "−1.0350"}, {"measurement": "ΔLSM (ADAS-Cog)", "setting": "MMSE [25-21]", "value": "−2.8929", "unit": "points"}, {"measurement": "δLSM (ADAS-Cog)", "setting": "MMSE [25-21]", "value": "−2.4719"}, {"measurement": "ΔLSM (ADAS-Cog)", "setting": "MMSE ≥13", "value": "−2.1488", "unit": "points"}, {"measurement": "δLSM (ADAS-Cog)", "setting": "MMSE ≥13", "value": "−1.4717"}, {"measurement": "ΔLSM (ADAS-Cog)", "setting": "MMSE ≥14", "value": "−2.4192", "unit": "points"}, {"measurement": "δLSM (ADAS-Cog)", "setting": "MMSE ≥14", "value": "−1.8028"}, {"measurement": "ΔLSM (ADAS-Cog)", "setting": "MMSE ≥15", "value": "−2.2577", "unit": "points"}, {"measurement": "δLSM (ADAS-Cog)", "setting": "MMSE ≥15", "value": "−1.8834"}, {"measurement": "ΔLSM (ADAS-Cog)", "setting": "MMSE ≥16", "value": "−2.2907", "unit": "points"}, {"measurement": "δLSM (ADAS-Cog)", "setting": "MMSE ≥16", "value": "−2.0435"}, {"measurement": "ΔLSM (ADAS-Cog)", "setting": "MMSE ≥17", "value": "−2.4915", "unit": "points"}, {"measurement": "δLSM (ADAS-Cog)", "setting": "MMSE ≥17", "value": "−2.3004"}, {"measurement": "ΔLSM (ADAS-Cog)", "setting": "Overall Population", "value": "−2.1485", "unit": "points"}, {"measurement": "δLSM (ADAS-Cog)", "setting": "Overall Population", "value": "−1.4550"}, {"measurement": "Δsub/Δoverall", "setting": "ratio of ΔLSM (ADAS-Cog) at W24, Diagnosis ≤2 years vs overall study population", "value": 1.29}, {"measurement": "Δsub/Δoverall", "setting": "ratio of ΔLSM (ADAS-Cog) at W24, Diagnosis ≤3 years vs overall study population", "value": 1.34}, {"measurement": "Δsub/Δoverall", "setting": "ratio of ΔLSM (ADAS-Cog) at W24, Diagnosis ≤4 years vs overall study population", "value": 1.09}, {"measurement": "Δsub/Δoverall", "setting": "ratio of ΔLSM (ADAS-Cog) at W24, Diagnosis ≤5 years vs overall study population", "value": 1.05}, {"measurement": "Δsub/Δoverall", "setting": "ratio of ΔLSM (ADAS-Cog) at W24, MMSE [20-12] vs overall study population", "value": 0.81}, {"measurement": "Δsub/Δoverall", "setting": "ratio of ΔLSM (ADAS-Cog) at W24, MMSE [25-21] vs overall study population", "value": 1.35}, {"measurement": "Δsub/Δoverall (percentage improvement)", "setting": "ΔLSM (ADAS-Cog) at W24, Diagnosis ≤2 years vs overall study population", "value": 29, "unit": "%"}, {"measurement": "Δsub/Δoverall (percentage improvement)", "setting": "ΔLSM (ADAS-Cog) at W24, Diagnosis ≤2 years vs overall study population, listed as M4.5", "value": "(29%)"}, {"measurement": "Δsub/Δoverall (percentage improvement)", "setting": "ΔLSM (ADAS-Cog) at W24, Diagnosis ≤3 years vs overall study population", "value": 34, "unit": "%"}, {"measurement": "Δsub/Δoverall (percentage improvement)", "setting": "ΔLSM (ADAS-Cog) at W24, Diagnosis ≤3 years vs overall study population, listed as M4.5", "value": "(34%)"}, {"measurement": "Δsub/Δoverall (percentage improvement)", "setting": "ΔLSM (ADAS-Cog) at W24, Diagnosis ≤4 years vs overall study population", "value": "(9%)"}, {"measurement": "Δsub/Δoverall (percentage improvement)", "setting": "ΔLSM (ADAS-Cog) at W24, Diagnosis ≤5 years vs overall study population", "value": "(5%)"}, {"measurement": "Δsub/Δoverall (percentage improvement)", "setting": "ΔLSM (ADAS-Cog) at W24, MMSE [20-12] vs overall study population", "value": "(−19%)"}, {"measurement": "Δsub/Δoverall (percentage improvement)", "setting": "ΔLSM (ADAS-Cog) at W24, MMSE [25-21] vs overall study population", "value": 35, "unit": "%"}, {"measurement": "Δsub/Δoverall (percentage improvement)", "setting": "ΔLSM (ADAS-Cog) at W24, MMSE [25-21] vs overall study population, listed as M4.5", "value": "(35%)"}, {"measurement": "improved benefit relative to complementary subpopulation", "setting": "ΔLSM (ADAS-Cog), baseline MMSE 25 to 21 relative to MMSE 20 to 12, printed as 'between 99% to 66%'", "value": 66, "unit": "%"}]}
